A short description of data set [1]: Pharmacokinetic evaluation in SD rats. Format: in vivo. How it is done:
18 male SD rats, eight weeks old, were purchased from Vital River Laboratory Animal Technology Co., Ltd., and adapted for 3 days before the experiments were started. The SD rats were randomized into 3 groups, fasted one day before administration but allowed access to water. The 3 groups of animals were administrated with 1 mg/kg compound either by tail vein injection (iv) or by intratracheal (it) administration. The compounds were formulated into 20 mg/ml stock solutions with 83% ethanol and 17% Tween80. For intravenous injection, 0.1 ml of the stock solution was diluted to the final volume with 9.9 ml physiological saline. For intratracheal administration, 0.25 ml of the stock solution was diluted with 4.75 ml physiological saline to the final volume. For the group for intravenous injection, right before administration (0 h) and 5 min, 15 min, 30 min, 1.0, 2.0, 4.0, 8.0, 24.0 h after administration, 0.1 ml blood was taken from the orbit, heparin was added for anticoagulation, and plasma was separated after centrifugation at 4° C., 3000 rpm for 10 min and stored at −80° C. before testing. For the group for intratracheal administration, right before administration and 5 min, 15 min, 30 min, 1.0, 2.0, 4.0, 8.0, 24.0 h after administration, blood was taken and treated the same way as for the group for intravenous injection. 30 μl plasma of rat at each of the time points was mixed with 200 μl acetonitrile solution containing an internal standard, vortexed for 1 min, and centrifuged at 11300 rpm for 10 min, and 175 μl of the supernatant was added to a 96-well plated for LC-MS/MS analysis. The major pharmacokinetic parameters were analyzed using the software WinNonlin 6.3 at the non-compartment mode.

Data set [2] has as its target human muscarine receptor M3 (Homo sapiens, UniProt P20309). Kind of data set: Inhibitory activity against human muscarine receptor M3 (aequorin luminescence in CHO cells, acetylcholine challenge). Format: cell-based. To be noted: CHO cells expressing hM3 and apo-Aequorin; acetylcholine chloride 112.92 nM. How it is done: CHO cells (PerkinElmer, ES-212-AF) that stably express human muscarine receptor 3 (hM3) and apo-Aequorin were cultured at 37° C. 5% CO2 in Ham's F12 media (Invitrogen 12500-062) containing 10% fetal bovine serum (FBS) (Gibico 10099-141), 400 μg/mL G418 (sigma G5013) and 250 μg/mL Zeocin (Invivogen ant-zn-5p), until a confluency of 90% to 100% was reached. Cells were separated by rinsing with PBS/5 mM EDTA, collected by centrifugation, re-suspended in phenol red-free Ham's F12 media (Invitrogen 12500-062) containing 0.1% BSA (BOVOGEN BSAS 100), and counted. The cell concentration was adjusted to 1×10^6 cells/ml. 15 ml of the cell suspension was added to a 50-ml centrifuge tube, to which Coelenterazine-h (Promega S2011) was added to a final concentration of 5 μM. The tube was wrapped with a tin foil to shade light, and incubated on a rotary shaker at 20° C. for 4 hours. The cells were diluted with a phenol red-free/0.1% BSA Ham's F12 medium to a final concentration of 5.0/10^5 cells/ml, placed on a rotary shaker in low-speed rotation, and incubated at room temperature for at least 1 hour. The compounds of the Examples were formulated with DMSO into 10 mM stock solutions, diluted in series with a phenol red-free/0.1% BSAHam's F12 medium (log(M): −7, −8, −9, −10, −11), and added to a 96-well plate at 50 μl/well. 50 μl cell suspension was further added to each well (25,000 cells/well) and incubated for 15 min at room temperature. The 96-well plate was placed under a microplate reader (Perkin Elmer, Envision), and a 50 μl solution of acetylcholine chloride (Sigma A6625) was added to each well at a concentration of 112.92 nM (hM3) with a microplate reader sample injector. The luminescence was recorded over 20 seconds, and IC50 values were calculated and analyzed by Origin 7.5.

Data set [3] deals with methacholine-induced bronchoconstriction in guinea pigs. As to the kind of experiment: Inhibition against methacholine-induced bronchoconstriction in guinea pigs (PenH, whole-body plethysmograph). To be noted: intratracheal, 0.3 nmol per animal, 3 mg/ml methacholine. Format: in vivo. How it is done: 8-week-old guinea pigs (all male) were purchased from Vital River Laboratory Animal Technology Co., Ltd., and adapted for 3 days before the experiments were started. The test compounds were formulated into 0.6 mM stock solutions with 83% dry ethanol+17% Tween80, which were diluted 500 times before administration. Before administration, the animals were anesthetized with 5% isoflurane by using a small-animal anesthetic apparatus (Matrx: VME2), wherein the anesthetic duration was 1.5 to 2 min. The anesthetized guinea pigs were fixed on a tracheal cannula platform, and intratracheally administrated with the compounds at 250 μl/animal by using a rat liquid-aerosol administration kit (penn-century; MSA-250-R). 4 hours and 24 hours after administration, the enhanced pauses (PenH) of the guinea pigs were measured in a whole-body plethysmograph (DSI; GS220A12-R7B). 3 mg/ml methacholine (Mch) was administrated by nebulization for 36 sec, and data was recorded over 7 min. The average of PenH was calculated (see J Pharmacol Exp Ther 345:260-270).
PenH calculation formula: PenH=PEP/PIP*Pause; Pause=(Te−Tr)/Tr
Te: Duration of expiratory phase (s)
Tr: Duration of relaxation phase (s)
PEP: Expiratory peak flow rate (ml/s)
PIP: Inspiratory peak flow rate (ml/s)

Data set [4] has as its target human β2-adrenergic receptor (Homo sapiens, UniProt P07550). As to the kind of experiment: Agonistic activity on human β2-adrenergic receptor (LANCE Ultra cAMP Assay in CHO cells). Format: cell-based. Particulars: CHO cells expressing hβ2; cAMP TR-FRET. On the procedure: The agonistic activity of the compounds of the Examples on the human adrenergic receptor was measured by the LANCE Ultra cAMP Assay.
CHO cells (PerkinElmer, ES-034-AF) that stably express human adrenergic receptor (hβ2) were cultured at 37° C. 5% CO2 in MEM-alpha media (Invitrogen 12561-056) containing 10% fetal bovine serum (FBS) (Gibico 10099-141) and 250 μg/ml Zeocin (InvivoGen ant-zn-5p), until a confluency of 90% to 100% was reached. Then the agonism on cAMP was tested by using a LANCE Ultra cAMP Assay kit (PerkinElmer TRF0263). Cells were separated with PBS/5 mM EDTA, collected by centrifugation, re-suspended in Stimulation Buffer (1×HBSS, 5 mM HEPES, 0.5 mM IBMX, 0.1% BSA, pH=7.4), and adjusted to a cell concentration of 6×10^5 cells/ml. The compounds of the Examples were formulated with DMSO into 10 mM stock solutions, diluted in series with Stimulation Buffer, and added to a 384-well plate at 5 μl/well. 5 μl cell suspension was further added to each well (3,000 cells/well), incubated for 30 min at room temperature, then 5 μl of a 4×Eu-cAMP trace working solution was added to each well, and then 5 μl of a 4×Ulight-anti-cAMP working solution was added to each well, followed by incubation at room temperature for 1 hour. The 384-well plate was detected for TR-FRET under a microplate reader (Perkin Elmer, Envision), and EC50 values were calculated and analyzed by Origin 7.5.
In general terms: TR-FRET usually uses a lanthanide donor and a delayed reading to cut background.

Setting [5] is: Sprague-Dawley (SD), rat, inhaled or intranasal, male SD rats, it (intratracheal), 1 mg/kg, plasma.
Setting [6] is: Sprague-Dawley (SD), rat, male SD rats, iv (tail vein), 1 mg/kg, plasma.

human muscarine receptor M3, sequence (P20309 whole entry): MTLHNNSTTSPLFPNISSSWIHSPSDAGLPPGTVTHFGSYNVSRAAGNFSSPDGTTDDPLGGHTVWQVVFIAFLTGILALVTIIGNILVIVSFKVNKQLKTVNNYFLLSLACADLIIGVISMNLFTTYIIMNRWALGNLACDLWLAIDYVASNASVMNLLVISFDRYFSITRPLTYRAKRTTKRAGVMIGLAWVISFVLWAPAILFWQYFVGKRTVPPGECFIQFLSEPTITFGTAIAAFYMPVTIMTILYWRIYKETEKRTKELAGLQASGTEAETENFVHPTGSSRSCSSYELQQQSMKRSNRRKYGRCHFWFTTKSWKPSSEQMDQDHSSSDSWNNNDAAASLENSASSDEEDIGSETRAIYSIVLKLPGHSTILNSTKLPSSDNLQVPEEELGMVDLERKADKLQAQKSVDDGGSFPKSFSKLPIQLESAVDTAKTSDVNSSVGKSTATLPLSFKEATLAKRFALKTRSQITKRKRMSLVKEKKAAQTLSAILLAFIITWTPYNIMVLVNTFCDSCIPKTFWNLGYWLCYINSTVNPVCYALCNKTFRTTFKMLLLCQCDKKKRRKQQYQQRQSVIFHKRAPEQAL
human β2-adrenergic receptor, sequence (P07550 whole entry): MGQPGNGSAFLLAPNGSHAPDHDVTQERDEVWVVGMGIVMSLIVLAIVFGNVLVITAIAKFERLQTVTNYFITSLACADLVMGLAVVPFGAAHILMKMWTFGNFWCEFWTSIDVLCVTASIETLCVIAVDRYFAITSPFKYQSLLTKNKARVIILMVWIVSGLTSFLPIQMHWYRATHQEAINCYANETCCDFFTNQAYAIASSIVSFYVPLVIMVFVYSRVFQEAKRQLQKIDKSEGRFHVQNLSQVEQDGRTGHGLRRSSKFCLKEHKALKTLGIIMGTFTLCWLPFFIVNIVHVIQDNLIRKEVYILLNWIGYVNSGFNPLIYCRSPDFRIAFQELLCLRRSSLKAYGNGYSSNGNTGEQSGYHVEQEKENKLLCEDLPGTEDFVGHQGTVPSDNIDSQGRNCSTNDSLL

Broadly, the AUC(0-inf) is the area under the concentration-time curve extrapolated to infinity. A low value points to less exposure. One may read the Cmax as the highest concentration seen after dosing. By Tmax is commonly meant the time at which the peak concentration occurs. In general, half-life refers to how long it takes for the measured level to halve. What is called IC50 is the concentration that inhibits the measured activity by half. The EC50 is the concentration that produces a half-maximal response. Lower therefore signals a more potent agent. For the compound `O=C(Nc1ccc(CNC[C@H](O)c2ccc(O)c3[nH]c(=O)ccc23)cc1)OCC1CCN(C(=O)CCN2CCC(OC(=O)Nc3ccccc3-c3ccccc3)CC2)CC1` [Compound 2, [1-[3-[4-[(2-phenylphenyl)carbamoyloxy]-1-piperidyl]propanoyl]-4-piperidyl]methyl N-[4-[[[(2R)-2-hydroxy-2-(8-hydroxy-2-oxo-1H-quinolin-5-yl)ethyl]amino]methyl]phenyl]carbamate; ditrifluoroacetic acid], in data set [1] (setting [5]), the AUC(0-inf) came to 11.6 ng·h/mL, the Cmax amounted to 7.08 ng/mL, the Tmax amounted to 34.8 min and the half-life was 45 min. Also, in data set [1] (setting [6]), the total exposure AUC(0-inf) worked out at 9.27 ng·h/mL and the half-life is 27.6 min. Also, in data set [1] (after iv and it administrations, rats, in words), the “in vivo exposure level” value was “low in vivo exposure level”. The compound further gave an IC50 in data set [2] of 1.69 nM. Also, the “PenH Inhibition (%) 4 h” value in data set [3] (4 h after administration) is on record as 94.8%. Further, the “PenH Inhibition (%) 24 h” value in data set [3] (24 h after administration) was 53.8%. For the same compound, the EC50 in data set [4] is 1.85 nM.

The values above are taken from patent US20210205291A1, “NITROGENOUS HETEROCYCLIC AMIDE DERIVATIVE, PREPARATION METHOD THEREOF, AND PHARMACEUTICAL APPLICATION” (Sichuan Haisco Pharmaceutical Co., Ltd., priority 2016, published 2021).
